Test results from paper PMC12216609, “Inhibitors of eIF1A-ribosome interaction unveil uORF-dependent regulation of translation initiation and antitumor and antiviral effects” (The EMBO Journal, 2025).
Where two headings read alike, the source gives them in different places.

Molecular target: T1, eIF1A-RPS10 interaction (Homo sapiens, UniProt P46783+P47813)
T1 construct: made in house; host or cells: E. coli BL21 (PRSFduet); unpurified lysate supernatant
Assay: Split-Renilla luciferase eIF1A-RPS10 interaction screen, dose-response
Format: biochemical
Method: While knockdown (KD) studies of eIF1A provided valuable insights into its role in mammalian cell translation (Sehrawat et al, [2019]), this approach presents several limitations. First, it fails to elucidate the functional significance of the opposing functions of eIF1A N- and C-terminal tails with respect to scanning and start codon fidelity. Second, the extended duration required for achieving efficient knockdown, 48–72 h, impairs our ability to differentiate between direct and indirect effects. To overcome these constraints, we set out to develop small-molecule inhibitors targeting eIF1A. Guided by structural and biochemical studies showing eIF1A binding to the small ribosomal subunit at the A-site and interacting directly with RPS10 through its N-terminal tail (Haimov et al, [2017]; Passmore et al, [2007]; Sehrawat et al, [2019]), our approach focused on disrupting the interaction between eIF1A and RPS10. […] The interaction between eIF1A and RPS10 brings the two parts together, leading to the reconstitution of the enzymatic activity (Haimov et al, [2017]). In this system, the spatial arrangement of the two RL parts is critical for the enzymatic activity, making it sensitive not only to direct interference with the interacting proteins but also to changes in the conformation of the fused proteins. In the eIF1A-RPS10 split-RL pair, the C-terminus of eIF1A is fused to N-RL (Fig. 1A), in order to maintain the NTT accessible to RPS10 binding. This pair was cloned and expressed in bacteria as recombinant proteins and used to screen a library of ~50,000 small molecules from diverse sources (Ashkenazi et al, [2017]).
eIF1A-ΔC-Renilla and RPS10-ΔN-Renilla were transformed into BL21 E. coli by heat shock transformation. A bacterial starter of 5 ml LB was incubated overnight at 37 °C and transferred into 1 L LB for incubation at 37 °C until OD ~ 0.5–0.7. Next, protein expression was induced with 0.5 mM IPTG, and bacterial cells were incubated overnight at 16 °C. Bacterial cell pellet was collected after centrifugation (3000 RPM, 15 min), resuspended in 20 ml TKE buffer (Tris 10 mM, KCl 100 mM, EDTA 0.1 mM), sonicated (bath sonicator, 24 cycles of 30 s) and centrifuged again (15000 RPM, 30 min). Supernatants were collected, analyzed for RL activity, and then used for high throughput drug screen (HTS) at the Weizmann G-INCPM HTS unit as described (Ashkenazi et al, [2017]). In addition to the standard controls of this protocol, the two parts of the split RL, without eIF1A or RPS10, were tested as controls. Selected compounds were purchased from Sigma-Aldrich and Enamine. Compound powders were resuspended in DMSO for a final concentration of 10 mM and stored at −20 °C.

[1] = Appendix Table S1, read-out: IC50 from the split RL screen
[2] = summary table, read-out: IC50 concentration (µM), IC50 screen

T1 sequence (P47813 whole entry, one chain of several): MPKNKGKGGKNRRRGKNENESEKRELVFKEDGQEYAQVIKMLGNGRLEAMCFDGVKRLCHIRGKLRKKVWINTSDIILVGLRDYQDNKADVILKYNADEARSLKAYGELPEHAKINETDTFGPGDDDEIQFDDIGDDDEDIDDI

Row | Compound | IC50 [1] | IC50 [2]
1 | COc1ccc2oc(C(=O)OC(C)C(=O)Nc3sccc3C(N)=O)c(C)c2c1 (centres unmarked) [1Ai-3044] | 15 µM | 10 µM
2 | Oc1cc(Cl)ccc1Oc1ccc(Cl)cc1Cl [1Ai-6248] | – | 28 µM
3 | CCOC(=O)c1ccsc1NC(=O)CN1C(=O)NC(C)(c2cccc3ccccc23)C1=O (centres unmarked) [1Ai-1861] | 14 µM | 15 µM
4 | O=C(C=Cc1ccc(Cl)s1)Nc1cccc2ncccc12 [1Ai-4860] | – | 23 µM
5 | O=S(=O)(c1ccccc1)N1CCN(C2c3ccccc3-c3ccccc32)CC1 [1Ai-9025] | – | 17 µM
6 | C=CCNC(=O)CN1CCN(Cc2nc3cc(-c4ccc(Cl)cc4)sc3c(=O)[nH]2)CC1 [1Ai-1524] | – | 30 µM
